Source: US20150316568A1, “Method for Screening Lyophilized Parenteral Formulations” (Cubist Pharmaceuticals, Inc., priority 2014, published 2015)

Legend:
[1] = X-Ray Powder Diffraction (XRPD) of solid form pre/post lyophilization; assay type: physicochemical; details: crystalline powder before lyophilization
[2] = Text: 1. […] 2. […] 3. […] 4. […] 5. […] 6. […] 7. […] 8. […] 9. […] 10.

Row | solid form after the lyophilization process (XRPD) [1] | solubility improvement [2] | Compound
1 | semi-crystalline forms | – | O=C(O)c1cn(C2CC2)c2cc(N3CCNCC3)c(F)cc2c1=O [Ciprofloxacin]
2 | amorphous form | 3-4 × | CN1CCN(c2cc3c(cc2F)c(=O)c(C(=O)O)cn3-c2ccc(F)cc2)CC1 [Difloxacin]
3 | amorphous form | 3-4 × | Fc1ccc([C@@H]2CCNC[C@H]2COc2ccc3c(c2)OCO3)cc1 [Paroxetine]
